According to the supplement of paper PMC13380429:

Tests used:
Conditions in all cases: 72 h
Caco-2 [1] = assay: cell viability relative to DMSO; higher = less toxic
Calu-3 [2] = assay: as above
HepG2 [3] = assay: as above
U2OS [4] = assay: as above
Caco-2 [5] = assay: relative viability EC50 (midpoint between 100% and the lowest measured viability); higher = less toxic
Calu-3 [6] = assay: as above
HepG2 [7] = assay: as above
U2OS [8] = assay: as above
Caco-2 [9] = assay: drug sensitivity score (DSS) for viability; higher = more toxic; extreme values may be limits of the assay
Calu-3 [10] = assay: as above
HepG2 [11] = assay: as above
U2OS [12] = assay: as above
Vero E6 [13] = assay: cell viability relative to DMSO; higher = less toxic
Vero E6 [14] = assay: relative viability EC50 (midpoint between 100% and the lowest measured viability); higher = less toxic
Vero E6 [15] = assay: drug sensitivity score (DSS) for viability; higher = more toxic; extreme values may be limits of the assay

Row | Compound | cell viability (Caco-2 [1]; 1 nM) [%] | cell viability (Caco-2 [1]; 10 nM) [%] | cell viability (Caco-2 [1]; 100 nM) [%] | cell viability (Caco-2 [1]; 1000 nM) [%] | cell viability (Caco-2 [1]; 10000 nM) [%] | cell viability (Calu-3 [2]; 1 nM) [%] | cell viability (Calu-3 [2]; 10 nM) [%] | cell viability (Calu-3 [2]; 100 nM) [%] | cell viability (Calu-3 [2]; 1000 nM) [%] | cell viability (Calu-3 [2]; 10000 nM) [%] | cell viability (HepG2 [3]; 1 nM) [%] | cell viability (HepG2 [3]; 10 nM) [%] | cell viability (HepG2 [3]; 100 nM) [%] | cell viability (HepG2 [3]; 1000 nM) [%] | cell viability (HepG2 [3]; 10000 nM) [%] | cell viability (U2OS [4]; 1 nM) [%] | cell viability (U2OS [4]; 10 nM) [%] | cell viability (U2OS [4]; 100 nM) [%] | cell viability (U2OS [4]; 1000 nM) [%] | cell viability (U2OS [4]; 10000 nM) [%] | relative viability EC50 (Caco-2 [5]) [µM] | relative viability EC50 (Calu-3 [6]) [µM] | relative viability EC50 (HepG2 [7]) [µM] | relative viability EC50 (U2OS [8]) [µM] | drug sensitivity score (Caco-2 [9]) | drug sensitivity score (Calu-3 [10]) | drug sensitivity score (HepG2 [11]) | drug sensitivity score (U2OS [12]) | cell viability (Vero E6 [13]; 1 nM) [%] | cell viability (Vero E6 [13]; 10 nM) [%] | cell viability (Vero E6 [13]; 100 nM) [%] | cell viability (Vero E6 [13]; 1000 nM) [%] | cell viability (Vero E6 [13]; 10000 nM) [%] | relative viability EC50 (Vero E6 [14]) [µM] | drug sensitivity score (Vero E6 [15])
1 | O=C(CN1C(=O)C2(CCCC2)NC[C@H]1c1cc(F)cc(F)c1)Nc1ccc2c(c1)C[C@@]1(C2)C(=O)Nc2ncccc21 [MK-3207] | 99 | 101 | 93 | 106 | 88.8 | 96.6 | 92.9 | 98.2 | 93.4 | 109 | 91.2 | 106 | 101 | 113 | 101 | 104 | 101 | 102 | 96.8 | 101 | > 10 | > 10 | > 10 | > 10 | 0 | 0 | 0 | 0 |  |  |  |  |  |  | 
2 | Cc1c(OCC(F)(F)F)ccnc1C[S+]([O-])c1nc2ccccc2[nH]1 (configuration not stated) [lansoprazole] | 99.7 | 94.3 | 96.6 | 97 | 92.6 | 93.1 | 107 | 95.1 | 107 | 92.3 | 104 | 96.8 | 96.1 | 92.1 | 96.5 | 94.8 | 101 | 93 | 93.8 | 93.8 | > 10 | > 10 | > 10 | > 10 | 0 | 0 | 0 | 0 |  |  |  |  |  |  | 
3 | COc1ccc(Cc2nc(O)c3c(C)nc([C@@H](CCCc4ccccc4)[C@@H](C)O)n3n2)cc1OC [BAY-60-7550] | 95.7 | 101 | 95.5 | 92.4 | 93.1 | 103 | 100 | 118 | 96.6 | 101 |  |  |  |  |  | 101 | 106 | 101 | 103 | 94.6 | > 10 | > 10 |  | > 10 | 0 | 0 |  | 0 | 103 | 105 | 98.5 | 98.1 | 95.2 | > 10 | 0
4 | CC(C)Nc1nc2cc(Cl)c(Cl)cc2n1[C@H]1O[C@@H](CO)[C@H](O)[C@@H]1O [maribavir] | 96.9 | 98.9 | 97.3 | 99.5 | 91 | 96.4 | 112 | 106 | 101 | 102 | 106 | 104 | 110 | 107 | 97.9 | 97.7 | 101 | 92.1 | 102 | 93.7 | > 10 | > 10 | > 10 | > 10 | 0 | 0 | 0 | 0 |  |  |  |  |  |  | 
